Measurements published in patent publication US10266513B2 (Pfizer Inc., priority 2012, dated 2019).

Molecular target: human full-length BTK Kinase (Homo sapiens (Human), UniProt Q06187)
Assay: Human BTK LanthaScreen Assay (TR-FRET)
Format: biochemical
Conditions: 50 μM ATP, FAM-Srctide peptide substrate, read-out: BTK Inhibition IC50
From the text: Human BTK LanthaScreen Assay

Chain of human full-length BTK Kinase (Q06187 whole entry): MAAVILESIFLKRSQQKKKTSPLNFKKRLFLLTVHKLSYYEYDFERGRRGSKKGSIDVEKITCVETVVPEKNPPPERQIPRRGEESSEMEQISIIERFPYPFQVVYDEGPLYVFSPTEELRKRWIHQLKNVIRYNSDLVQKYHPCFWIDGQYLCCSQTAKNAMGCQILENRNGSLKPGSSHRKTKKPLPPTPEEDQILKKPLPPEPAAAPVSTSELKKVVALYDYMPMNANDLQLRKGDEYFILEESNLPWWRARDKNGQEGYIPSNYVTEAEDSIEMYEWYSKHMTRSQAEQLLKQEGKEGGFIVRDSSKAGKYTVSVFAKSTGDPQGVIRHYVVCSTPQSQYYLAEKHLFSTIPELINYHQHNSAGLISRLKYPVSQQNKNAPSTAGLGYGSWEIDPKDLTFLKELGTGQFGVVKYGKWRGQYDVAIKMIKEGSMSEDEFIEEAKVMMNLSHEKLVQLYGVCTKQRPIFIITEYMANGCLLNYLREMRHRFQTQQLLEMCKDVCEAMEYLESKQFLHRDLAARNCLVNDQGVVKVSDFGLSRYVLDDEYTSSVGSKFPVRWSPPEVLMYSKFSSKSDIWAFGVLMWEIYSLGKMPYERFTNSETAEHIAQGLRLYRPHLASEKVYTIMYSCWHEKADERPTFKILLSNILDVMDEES

Structure (SMILES)	IC50
N#CN1CCCC(n2nc(-c3ccc(Oc4cc(F)ccc4Cl)cc3)c(C(N)=O)c2N)C1 (centres unmarked) [Example 45, 5-amino-3-[4-(2-chloro-5-fluoro-phenoxy)phenyl]-1-(1-cyanopiperidin-3-yl)-1H-pyrazole-4-carboxamide]	0.81 nM
C/C=C/C(=O)N1CCCC(n2nc(-c3ccc(Oc4ccccc4)cc3)c(C(N)=O)c2N)C1 (centres unmarked) [Example 128, 5-amino-1-{1-[(2E)-but-2-enoyl]piperidin-3-yl}-3-(4-phenoxyphenyl)-1H-pyrazole-4-carboxamide]	4.5 nM
N#CN1CCCC(n2nc(-c3ccc(Cc4ccc(F)cc4F)cc3)c(C(N)=O)c2N)C1 (centres unmarked) [Example 80, 5-amino-1-(1-cyanopiperidin-3-yl)-3-[4-(2,4-difluorobenzyl)phenyl]-1H-pyrazole-4-carboxamide]	15.6 nM
N#CN1CCC[C@@H](n2nc(-c3ccc(Cc4ccccc4Cl)cc3)c(C(N)=O)c2N)C1 [Example 72, (R)-5-amino-3-(4-(2-chlorobenzyl)phenyl)-1-(1-cyanopiperidin-3-yl)-1H-pyrazole-4-carboxamide]	0.54 nM
C[C@H]1CC[C@@H](n2nc(-c3ccc(Oc4ccc(F)cc4F)cc3)c(C(N)=O)c2N)CN1C#N (relative stereo) [Example 121, 5-amino-1-[(3R*,6S*)-1-cyano-6-methylpiperidin-3-yl]-3-[4-(2,4-difluorophenoxy)phenyl]-1H-pyrazole-4-carboxamide]	9.9 nM
N#C/C=C/C(=O)N1CCC[C@@H](n2nc(-c3ccc(Oc4ccc(F)cc4F)cc3)c(C(N)=O)c2N)C1 [Example 152, 5-amino-1-{(3R)-1-[(2E)-3-cyanoprop-2-enoyl]piperidin-3-yl}-3-[4-(2,4-difluorophenoxy)phenyl]-1H-pyrazole-4-carboxamide]	1.5 nM
N#CN1CCCC(n2nc(-c3ccc(Oc4ccc(F)cc4Cl)cc3)c(C(N)=O)c2N)C1 (centres unmarked) [Example 35, 5-amino-3-[4-(2-chloro-4-fluorophenoxy)phenyl]-1-(1-cyanopiperidin-3-yl)-1H-pyrazole-4-carboxamide]	1.7 nM
Cc1ccc(Oc2cccc(-c3nn(C4CCCN(C#N)C4)c(N)c3C(N)=O)c2)cc1 (centres unmarked) [Example 98, 5-amino-1-(1-cyanopiperidin-3-yl)-3-[3-(4-methylphenoxy)phenyl]-1H-pyrazole-4-carboxamide]	27.3 nM
N#CN1CCCC(n2nc(-c3ccc(Sc4ccc(Cl)cc4)cc3)c(C(N)=O)c2N)C1 (centres unmarked) [Example 124, 5-amino-3-{4-[(4-chlorophenyl)thio]phenyl}-1-(1-cyanopiperidin-3-yl)-1H-pyrazole-4-carboxamide]	0.74 nM
N#CN1CCC[C@H](n2nc(-c3ccc(Cc4ccccc4F)cc3)c(C(N)=O)c2N)C1 [Example 76, (S)-5-amino-1-(1-cyanopiperidin-3-yl)-3-(4-(2-fluorobenzyl)phenyl)-1H-pyrazole-4-carboxamide]	12 nM
N#CN1CCCC(n2nc(-c3ccc(Oc4ccc(Cl)cc4)cc3)c(C(N)=O)c2N)C1 (single isomer, unassigned) [Example 14]	12.5 nM
Cc1cc(F)ccc1Oc1ccc(-c2nn(C3CCCN(C#N)C3)c(N)c2C(N)=O)cc1 (centres unmarked) [Example 32, 5-amino-1-(1-cyanopiperidin-3-yl)-3-[4-(4-fluoro-2-methylphenoxy)phenyl]-1H-pyrazole-4-carboxamide]	4.1 nM
CC(C)Oc1ccc(Oc2ccc(-c3nn(C4CCCN(C#N)C4)c(N)c3C(N)=O)cc2)cc1 (centres unmarked) [Example 44, 5-amino-1-(1-cyanopiperidin-3-yl)-3-[4-(4-isopropoxyphenoxy)phenyl]-1H-pyrazole-4-carboxamide]	24.4 nM
Cc1cc(F)ccc1Oc1ccc(-c2nn(C3CCCN(C#N)C3)c(N)c2C(N)=O)cc1 (single isomer, unassigned) [Example 34]	3.8 nM
CC(C)c1ccc(Oc2ccc(-c3nn(C4CCCN(C#N)C4)c(N)c3C(N)=O)cc2)cc1 (centres unmarked) [Example 24, 5-amino-1-(1-cyanopiperidin-3-yl)-3-[4-(4-isopropylphenoxy)phenyl]-1H-pyrazole-4-carboxamide]	5 nM
N#CN1CCCC(n2nc(-c3ccc(Oc4cc(F)cc(F)c4)cc3)c(C(N)=O)c2N)C1 (centres unmarked) [Example 66, 5-amino-1-(1-cyanopiperidin-3-yl)-3-[4-(3,5-difluorophenoxy)phenyl]-1H-pyrazole-4-carboxamide]	7.2 nM
N#CN1CCCC(n2nc(-c3ccc(Oc4cccc(Cl)c4F)cc3)c(C(N)=O)c2N)C1 (centres unmarked) [Example 57, 5-amino-3-[4-(3-chloro-2-fluoro-phenoxy)phenyl]-1-(1-cyanopiperidin-3-yl)-1H-pyrazole-4-carboxamide]	3.1 nM
N#CN1CCCC(n2nc(-c3ccc(Cc4ccccc4Cl)cc3)c(C(N)=O)c2N)C1 (centres unmarked) [Example 71, 5-amino-3-(4-(2-chlorobenzyl)phenyl)-1-(1-cyanopiperidin-3-yl)-1H-pyrazole-4-carboxamide]	2.7 nM
Cc1cc(Oc2ccc(-c3nn(C4CCCN(C#N)C4)c(N)c3C(N)=O)cc2)ccc1Cl (centres unmarked) [Example 40, 5-amino-3-[4-(4-chloro-3-methylphenoxy)phenyl]-1-(1-cyanopiperidin-3-yl)-1H-pyrazole-4-carboxamide]	1.5 nM

Structure (SMILES)	IC50
N#CN1CCCC(n2nc(-c3ccc(Oc4ccc(Cl)cn4)cc3)c(C(N)=O)c2N)C1 (single isomer, unassigned) [Example 109]	128 nM
CC(C)c1ccccc1Oc1cccc(-c2nn(C3CCCN(C#N)C3)c(N)c2C(N)=O)c1 (centres unmarked) [Example 97, 5-amino-1-(1-cyanopiperidin-3-yl)-3-[3-(2-isopropylphenoxy)phenyl]-1H-pyrazole-4-carboxamide]	52.8 nM
N#CN1CCCC(n2nc(-c3cccc(Oc4ccc(F)cc4)c3)c(C(N)=O)c2N)C1 (centres unmarked) [Example 94, 5-Amino-1-(1-cyanopiperidin-3-yl)-3-(3-(4-fluorophenoxy)phenyl)-1H-pyrazole-4-carboxamide]	50.2 nM
N#CN1CCCC(n2nc(-c3ccc(Oc4ccccc4)cc3)c(C(N)=O)c2N)C1 (single isomer, unassigned) [Example 3]	3.3 nM
N#CN1CCCC(n2nc(-c3ccc(Oc4c(F)cccc4Cl)cc3)c(C(N)=O)c2N)C1 (centres unmarked) [Example 63, 5-amino-3-[4-(2-chloro-6-fluoro-phenoxy)phenyl]-1-(1-cyanopiperidin-3-yl)-1H-pyrazole-4-carboxamide]	4.9 nM
C[C@@H]1CC[C@H](n2nc(-c3ccc(Oc4ccc(F)cc4F)cc3)c(C(N)=O)c2N)CN1C#N [Example 123, 5-amino-1-[(3S,6R)-1-cyano-6-methylpiperidin-3-yl]-3-[4-(2,4-difluorophenoxy)phenyl]-1H-pyrazole-4-carboxamide]	396 nM
COc1cccc(Oc2ccc(-c3nn(C4CCCN(C#N)C4)c(N)c3C(N)=O)cc2)c1 (centres unmarked) [Example 48, 5-amino-1-(1-cyanopiperidin-3-yl)-3-[4-(3-methoxyphenoxy)phenyl]-1H-pyrazole-4-carboxamide]	0.44 nM
N#CN1CCCC(n2nc(-c3cccc(Cc4ccc(Cl)cc4)c3)c(C(N)=O)c2N)C1 (centres unmarked) [Example 92, 5-amino-3-[3-(4-chlorobenzyl)phenyl]-1-(1-cyanopiperidin-3-yl)-1H-pyrazole-4-carboxamide]	73.4 nM
N#CN1CCCC(n2nc(-c3ccc(Oc4ccc(F)cc4F)cc3)c(C(N)=O)c2N)C1 (centres unmarked) [Example 25, 5-amino-1-(1-cyanopiperidin-3-yl)-3-[4-(2,4-difluorophenoxy)phenyl]-1H-pyrazole-4-carboxamide]	2.18 nM
C[C@@H](O)/C=C/C(=O)N1CCC[C@@H](n2nc(-c3ccc(Oc4ccc(F)cc4F)cc3)c(C(N)=O)c2N)C1 [Example 149, 5-amino-3-(4-(2,4-difluorophenoxy)phenyl)-1-((R)-1-((R,E)-4-hydroxypent-2-enoyl)piperidin-3-yl)-1H-pyrazole-4-carboxamide]	52 nM
N#CN1CCCC(n2nc(-c3ccc(Oc4ccc(F)c(C(F)(F)F)c4)cc3)c(C(N)=O)c2N)C1 (centres unmarked) [Example 64, 5-amino-1-(1-cyanopiperidin-3-yl)-3-{4-[4-fluoro-3-(trifluoromethyl)phenoxy]phenyl}-1H-pyrazole-4-carboxamide]	8.7 nM
Cc1ccc(Oc2ccc(-c3nn(C4CCCN(C#N)C4)c(N)c3C(N)=O)cc2)cc1C (single isomer, unassigned) [Example 18]	3 nM
C=C(F)C(=O)N1CCC[C@@H](n2nc(-c3ccc(Oc4ccc(F)cc4F)cc3)c(C(N)=O)c2N)C1 [Example 150, 5-amino-3-[4-(2,4-difluorophenoxy)phenyl]-1-[(3R)-1-(2-fluoroacryloyl)piperidin-3-yl]-1H-pyrazole-4-carboxamide]	5.3 nM
N#CCN1CCC(n2nc(-c3ccc(Oc4ccccc4)cc3)c(C(N)=O)c2N)C1 (centres unmarked) [Example 8, 5-amino-1-[1-(cyanomethyl)pyrrolidin-3-yl]-3-(4-phenoxyphenyl)-1H-pyrazole-4-carboxamide]	16.5 nM
N#CN1CCCC(n2nc(-c3ccc(Cc4ccc(F)cc4F)cc3)c(C(N)=O)c2N)C1 (single isomer, unassigned) [Example 82]	126 nM
N#CN1CCCC(n2nc(-c3ccc(Oc4ccc(F)cc4Cl)cc3)c(C(N)=O)c2N)C1 (single isomer, unassigned) [Example 36]	25.3 nM
N#CN1CCCC(n2nc(-c3ccc(Oc4ccccc4C(F)(F)F)cc3)c(C(N)=O)c2N)C1 (centres unmarked) [Example 52, 5-amino-1-(1-cyanopiperidin-3-yl)-3-{4-[2-(trifluoromethyl)phenoxy]-phenyl}-1H-pyrazole-4-carboxamide]	2.9 nM
N#CN1CCCC(n2nc(-c3ccc(Cc4ccccc4F)cc3)c(C(N)=O)c2N)C1 (centres unmarked) [Example 74, 5-amino-1-(1-cyanopiperidn-3-yl)-3-[4-(2-fluorobenzyl)phenyl]-1H-pyrazole-4-carboxamide]	1 nM
CC(C)(O)/C=C/C(=O)N1CCC[C@@H](n2nc(-c3ccc(Oc4ccc(F)cc4F)cc3)c(C(N)=O)c2N)C1 [Example 147, 5-amino-3-[4-(2,4-difluorophenoxy)phenyl]-1-{(3R)-1-[(2E)-4-hydroxy-4-methylpent-2-enoyl]piperidin-3-yl}-1H-pyrazole-4-carboxamide]	241 nM
